Experimental findings from patent US20260109715A1, “IMIDAZOPYRIDINE DERIVATIVES WITH BICYCLIC STRUCTURE” (PUBLIC UNIVERSITY CORPORATION YOKOHAMA CITY UNIVERSITY, priority 2022, published 2026) are described below.

Test [1] deals with Snhg1 transcript (NMD target gene) in EMT6 murine breast cancer cell line. Nature of the test: Measurement of NMD inhibitory activity in cells (increase in Snhg1 transcript, real-time PCR). Also noted: species or system mouse. As to conditions: 6 hours treatment, concentration giving 1/2 of maximum Snhg1 fold change of positive control, read-out: Test Example 2 Cell-based Snhg1 EC50. On the procedure:
The NMD inhibitory activity of a compound of the present invention or a pharmaceutically acceptable salt thereof in cells can be measured, for example, by the method described below. EMT6 murine breast cancer cell line is treated with a test substance in vitro for 6 hours, and the increase in the transcript of Snhg1, a known NMD target gene, is quantified as an indicator of NMD inhibition. Quantification is performed by real-time PCR.
NMD inhibitory activity was measured by treating EMT6 murine breast cancer cell line (ATCC) with a test substance and quantifying the increase in the transcript of Snhg1, an NMD target gene (see F. Usui, et al., Scientific Reports volume 9, Article number: 1279 (2019) for the NMD target gene). That is, EMT6 cells were suspended in Waymouth's medium (Gibco, 15% FBS) and seeded in a 96-well plate at 2×10^4 cells/well. The cells were cultured for 1 day. The next day, serially diluted test substance (DMSO solution, final DMSO concentration: 2%) was added. After culturing for 6 hours, the supernatant was removed, and RNA was extracted using the RNeasy 96 kit (QIAGEN, 74182). After synthesizing cDNA using the High Capacity cDNA Reverse Transcription kit (Applied Biosystems, 4368813), the cDNA was mixed with PrimeTime Gene Expression Master Mix (Integrated DNA Technologies) and various probes, and gene expression was quantified using QuantStudio 6 Flex (Thermo Fisher Scientific Inc.). For the probe for the Snhg1 gene, which is an NMD target, Mm.PT.58.44039547 (FAM)(Integrated DNA Technologies) was used, and for the probe for the Tbp gene, which is an endogenous control, Mm00446973_m1 Tbp (VIC-PL) (Applied Biosystems) was used. The relative quantification of Snhg1 transcripts was calculated by the ΔΔCT method, using Thp as an endogenous control and setting the expression level of Snhg1 in untreated wells to 1.
A known NMD inhibitory compound (pyrimidine derivative Example 11i, Bioorg Med Chem Lett. 2012, 22(21), 6636-41) was used as a positive control drug for NMD inhibition. The NMD inhibitory activity of the test substance-added well was calculated as follows: the maximum fold change in Sngh1 expression in the positive control drug-added well relative to that in the untreated well was defined as the maximum NMD inhibitory activity, and the EC50 (compound concentration showing 50%/activity) of the test substance showing a ½-fold change was calculated by the GROWTH function of Microsoft Excel.
A general note: In qPCR the cycle at which signal appears reflects the starting amount.

A further test deals with human SMG1 enzyme (Homo sapiens, UniProt Q96Q15). Kind of test: Measurement of SMG1 kinase activity (ADP-Glo Kinase Assay). It counts as biochemical. As to conditions: purified human SMG1 enzyme 5 nM, Upf1 peptide substrate, ATP 4 μM; qAC50 synonymous with IC50; read-out: Test Example 1 ADP-Glo IC50. The text has this:
The SMG1 kinase inhibitory activity of a compound of the present invention or a pharmaceutically acceptable salt thereof can be measured, for example, by the method described below. Using purified human SMG1 protein and a substrate peptide as materials, the kinase activity can be measured by the ADP-Glo Kinase Assay; the SMG1 kinase inhibitory activity of a test substance can be evaluated by comparing the kinase activity in the presence and absence of the test substance.
The reaction was performed by the ADP-Glo Kinase Assay (Promega, catalog number V9102) using a 384-well plate under the conditions of an assay buffer (100 mM HEPES (pH 7.5), 50 mM NaCl, 10 mM MnCl2, 0.01% BSA, 0.1% Tween 20.5 mM TCEP). After incubating a test substance (DMSO solution; final DMSO concentration: 1%) and purified human SMG1 enzyme (Genes Dev. 2011 Jan. 15; 25(2): 153-164, produced by Daiichi Sankyo RD Novare Co., Ltd.; final concentration: 5 nM) at room temperature for 15 minutes, a substrate, Upf1 peptide (Biotin-(PEG8) QIDVALSQDSTYQG, produced by Eurofins genomics; final concentration: 8 μg/mL), and ATP (Promega: 4 μM) were added, and the mixture was reacted at room temperature for 60 minutes (see Non-Patent Literature R. Melero, et al., Structure Volume 22, Issue 8, 5 Aug. 2014, Pages 1105-1119 for the Upf1 peptide). ADP-Glo Reagent was added, and the mixture was reacted at room temperature for 40 minutes. Kinase Detection Reagent was added, and the mixture was reacted for another 30 minutes. The luminescence intensity was measured using EnVision (PerkinElmer).
The activity value (%) of the test substance-added well was calculated from the following formula, where the average luminescence intensity of the DMSO-added well was 0% and the average luminescence intensity of the SMG1 enzyme-free well was −100%.
The qAC50 (compound concentration showing 50% inhibition, synonymous with IC50) of the test substance was calculated using the activity value (%) at each concentration by Smart fit of Screener (Genedata). Smart fit is a general 4-parameter logistic regression model.
(ADP-Glo turns the ADP formed in a reaction into a luminescent signal.)

Read-outs that look alike come from different tables or passages of the source.

Chain of human SMG1 enzyme (Q96Q15 whole entry): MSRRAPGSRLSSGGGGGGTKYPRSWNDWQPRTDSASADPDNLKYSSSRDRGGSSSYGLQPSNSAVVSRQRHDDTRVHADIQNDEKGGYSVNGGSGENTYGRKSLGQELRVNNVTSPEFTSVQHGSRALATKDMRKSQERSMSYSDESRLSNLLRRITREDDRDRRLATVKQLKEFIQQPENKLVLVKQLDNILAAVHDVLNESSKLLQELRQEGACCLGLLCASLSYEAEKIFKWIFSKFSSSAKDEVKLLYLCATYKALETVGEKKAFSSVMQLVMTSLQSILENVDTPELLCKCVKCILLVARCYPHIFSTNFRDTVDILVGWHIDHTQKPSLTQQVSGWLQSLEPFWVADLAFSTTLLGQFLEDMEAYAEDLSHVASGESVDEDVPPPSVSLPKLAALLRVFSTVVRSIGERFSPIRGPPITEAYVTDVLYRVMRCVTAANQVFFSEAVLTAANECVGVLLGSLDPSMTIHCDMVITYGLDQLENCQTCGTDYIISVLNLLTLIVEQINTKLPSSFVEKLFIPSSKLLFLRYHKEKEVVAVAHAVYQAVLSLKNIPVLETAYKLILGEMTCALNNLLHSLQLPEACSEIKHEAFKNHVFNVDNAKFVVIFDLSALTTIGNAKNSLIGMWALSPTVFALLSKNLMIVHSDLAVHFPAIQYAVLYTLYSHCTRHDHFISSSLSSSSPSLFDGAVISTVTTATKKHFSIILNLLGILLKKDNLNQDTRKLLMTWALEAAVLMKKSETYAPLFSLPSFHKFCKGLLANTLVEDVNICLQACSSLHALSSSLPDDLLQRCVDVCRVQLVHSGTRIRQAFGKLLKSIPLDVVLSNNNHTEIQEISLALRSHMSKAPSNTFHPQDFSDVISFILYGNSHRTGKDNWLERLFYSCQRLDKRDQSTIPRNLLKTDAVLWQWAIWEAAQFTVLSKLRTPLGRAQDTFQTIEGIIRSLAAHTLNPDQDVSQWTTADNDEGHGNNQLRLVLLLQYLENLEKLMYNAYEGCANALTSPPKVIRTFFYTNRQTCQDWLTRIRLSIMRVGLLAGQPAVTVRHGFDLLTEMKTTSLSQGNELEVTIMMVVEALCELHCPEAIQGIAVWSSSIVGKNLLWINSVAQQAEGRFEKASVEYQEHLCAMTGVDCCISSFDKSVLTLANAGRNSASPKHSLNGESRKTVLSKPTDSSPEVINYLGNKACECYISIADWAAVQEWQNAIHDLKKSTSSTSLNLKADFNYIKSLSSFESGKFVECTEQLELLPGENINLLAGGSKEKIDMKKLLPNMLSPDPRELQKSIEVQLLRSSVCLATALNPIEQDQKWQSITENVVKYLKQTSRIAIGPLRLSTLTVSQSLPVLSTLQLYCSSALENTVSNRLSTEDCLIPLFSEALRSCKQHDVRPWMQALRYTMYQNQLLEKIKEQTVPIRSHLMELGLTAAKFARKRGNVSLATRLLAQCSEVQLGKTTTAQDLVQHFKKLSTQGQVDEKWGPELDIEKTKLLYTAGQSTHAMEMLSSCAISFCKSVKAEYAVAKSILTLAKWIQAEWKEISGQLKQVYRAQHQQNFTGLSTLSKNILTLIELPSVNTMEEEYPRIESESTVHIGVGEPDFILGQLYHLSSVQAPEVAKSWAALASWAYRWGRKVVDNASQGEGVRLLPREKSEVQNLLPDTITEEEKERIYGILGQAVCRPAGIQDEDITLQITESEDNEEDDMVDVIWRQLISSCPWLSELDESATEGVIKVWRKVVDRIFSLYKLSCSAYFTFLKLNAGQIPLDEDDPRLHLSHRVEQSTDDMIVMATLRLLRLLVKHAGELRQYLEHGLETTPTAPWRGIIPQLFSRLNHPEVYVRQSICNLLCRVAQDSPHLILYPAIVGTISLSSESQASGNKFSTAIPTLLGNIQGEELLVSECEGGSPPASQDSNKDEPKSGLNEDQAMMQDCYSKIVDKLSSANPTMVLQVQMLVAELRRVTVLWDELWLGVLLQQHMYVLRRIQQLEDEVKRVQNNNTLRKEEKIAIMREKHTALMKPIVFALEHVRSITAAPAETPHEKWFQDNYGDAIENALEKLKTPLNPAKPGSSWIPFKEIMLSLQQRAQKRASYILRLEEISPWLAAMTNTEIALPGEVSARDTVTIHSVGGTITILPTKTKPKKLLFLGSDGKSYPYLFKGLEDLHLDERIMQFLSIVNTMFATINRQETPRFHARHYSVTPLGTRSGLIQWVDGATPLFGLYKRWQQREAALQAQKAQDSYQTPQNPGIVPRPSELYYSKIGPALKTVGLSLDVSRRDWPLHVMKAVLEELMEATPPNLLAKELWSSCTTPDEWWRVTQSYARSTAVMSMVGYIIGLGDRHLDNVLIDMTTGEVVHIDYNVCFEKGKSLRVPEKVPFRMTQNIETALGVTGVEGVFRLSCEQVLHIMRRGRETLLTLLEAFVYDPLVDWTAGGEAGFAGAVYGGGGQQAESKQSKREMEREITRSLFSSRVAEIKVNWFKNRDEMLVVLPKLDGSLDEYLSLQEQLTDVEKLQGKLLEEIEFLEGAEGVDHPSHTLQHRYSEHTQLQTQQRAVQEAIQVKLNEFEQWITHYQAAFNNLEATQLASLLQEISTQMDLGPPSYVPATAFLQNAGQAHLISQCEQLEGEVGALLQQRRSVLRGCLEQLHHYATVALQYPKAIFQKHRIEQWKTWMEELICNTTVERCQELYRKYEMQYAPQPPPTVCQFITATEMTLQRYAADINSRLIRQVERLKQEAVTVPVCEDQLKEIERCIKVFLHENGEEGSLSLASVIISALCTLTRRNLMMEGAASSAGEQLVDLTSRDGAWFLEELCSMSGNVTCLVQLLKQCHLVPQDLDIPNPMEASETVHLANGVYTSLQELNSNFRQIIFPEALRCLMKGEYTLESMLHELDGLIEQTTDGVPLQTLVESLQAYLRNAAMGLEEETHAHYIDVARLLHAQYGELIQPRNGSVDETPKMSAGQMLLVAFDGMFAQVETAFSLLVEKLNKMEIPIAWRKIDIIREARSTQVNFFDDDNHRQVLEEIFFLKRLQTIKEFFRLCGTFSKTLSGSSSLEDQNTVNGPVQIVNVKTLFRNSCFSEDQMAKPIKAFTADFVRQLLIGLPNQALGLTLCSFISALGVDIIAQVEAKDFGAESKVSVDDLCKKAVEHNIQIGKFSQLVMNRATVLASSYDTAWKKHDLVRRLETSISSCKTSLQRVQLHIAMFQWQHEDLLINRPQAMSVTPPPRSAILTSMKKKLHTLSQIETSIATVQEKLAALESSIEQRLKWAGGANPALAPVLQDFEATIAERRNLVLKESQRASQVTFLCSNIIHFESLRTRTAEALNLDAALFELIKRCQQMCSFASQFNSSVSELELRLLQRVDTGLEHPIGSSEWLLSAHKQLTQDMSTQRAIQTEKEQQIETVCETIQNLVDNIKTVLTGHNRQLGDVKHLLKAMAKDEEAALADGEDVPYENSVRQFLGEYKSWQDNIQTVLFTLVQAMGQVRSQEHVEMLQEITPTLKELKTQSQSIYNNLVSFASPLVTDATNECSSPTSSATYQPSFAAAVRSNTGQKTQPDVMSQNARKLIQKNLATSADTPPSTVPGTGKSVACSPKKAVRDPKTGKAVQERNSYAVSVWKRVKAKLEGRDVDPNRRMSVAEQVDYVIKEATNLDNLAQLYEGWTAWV

The EC50 is the concentration that produces a half-maximal response. One may read the IC50 as the concentration needed to halve the response being measured. Take `Cc1cc2[nH]c(=O)c(-c3nc4c(C5CCOCC5)nc(Cl)cc4[nH]3)cc2c(C)n1` [Example 18, 3-[6-chloro-4-(tetrahydro-2H-pyran-4-yl)-1H-imidazo[4,5-c]pyridin-2-yl]-5,7-dimethyl-1,6-naphthyridin-2(1H)-one]: the EC50 in test [1] (Mus musculus) was 43 nM. For the same compound, the IC50 on human SMG1 enzyme was 0.57 nM.

`[2H]C([2H])([2H])Oc1ccccc1-c1nccc2[nH]c(=O)c(-c3nc4c(N=S(C)(C)=O)nc(Cl)cc4[nH]3)cc12` [Example 44, 3-(6-chloro-4-{[dimethyl(oxide)-A6-sulfanylidene]amino}-1H-imidazo[4,5-c]pyridin-2-yl)-5-{2-[(^2H3)methyloxy]phenyl}-1,6-naphthyridin-2(1H)-one]: in test [1] (Mus musculus), the half-maximal effective concentration (EC50) worked out at 54 nM. In addition, the IC50 on human SMG1 enzyme came to 0.5 nM.

As to `CS(=O)(=O)O.[2H]C([2H])([2H])Oc1ccccc1-c1nccc2[nH]c(=O)c(-c3nc4c(N[C@H]5CCOC5)nc(Cl)cc4[nH]3)cc12` [Example 134, 3-{6-chloro-4-[(3S)-tetrahydrofuran-3-ylamino]-1H-imidazo[4,5-c]pyridin-2-yl}-5-(2-[(2H3)methyloxy]phenyl)-1,6-naphthyridin-2(1H)-one methanesulfonate], in test [1] (Mus musculus), the EC50 worked out at 18 nM. Moreover, on human SMG1 enzyme, the IC50 was 1.1 nM.

For the compound `O=c1[nH]c2ccnc(C3=CCCN(S(=O)(=O)C4CC4)C3)c2cc1-c1nc2cnc(Cl)cc2[nH]1` [Example 104, 3-(6-chloro-1H-imidazo[4,5-c]pyridin-2-yl)-5-[1-(cyclopropylsulfonyl)-1,2,5,6-tetrahydropyridin-3-yl]-1,6-naphthyridin-2(1H)-one], in test [1] (Mus musculus), the EC50 is 75 nM. The IC50 at human SMG1 enzyme was 0.79 nM.

As for `O=c1[nH]c2ccncc2cc1-c1nc2c(N3CCOC[C@H]3C(F)F)nc(Cl)cc2[nH]1` [Example 4, 3-{6-chloro-4-[(3S)-3-(difluoromethyl)morpholin-4-yl]-1H-imidazo[4,5-c]pyridin-2-yl}-1,6-naphthyridin-2(1H)-one], the EC50 in test [1] (Mus musculus) came to 41 nM. The IC50 at human SMG1 enzyme is 2.4 nM.

`[2H]C([2H])([2H])Oc1ccccc1-c1nccc2[nH]c(=O)c(-c3nc4c(C(C)F)nc(Cl)cc4[nH]3)cc12` (stereo not shown) [Example 41, 3-[6-chloro-4-(1-fluoroethyl)-1H-imidazo[4,5-c]pyridin-2-yl]-5-{2-[(^2H3)methyloxy]phenyl}-1,6-naphthyridin-2(1H)-one]: in test [1] (Mus musculus), the EC50 came out at 4.8 nM. In addition, the IC50 on human SMG1 enzyme came to 1.1 nM.

On to “5-(2-chloro-6-fluorophenyl)-3-(6-chloro-1H-imidazo[4,5-c]pyridin-2-y1)-1,6-naphthyridin-2(1H)-one [Example 30]”, for which, in test [1], the EC50 is 40 nM. For the same compound, at human SMG1 enzyme, the IC50 came out at 1.9 nM.

As to `Cc1nn(C)c(C)c1-c1nccc2[nH]c(=O)c(-c3nc4cnc(Cl)cc4[nH]3)cc12` [Example 88, 3-(6-chloro-1H-imidazo[4,5-c]pyridin-2-yl)-5-(1,3,5-trimethyl-1H-pyrazol-4-yl)-1,6-naphthyridin-2(1H)-one], the EC50 in test [1] (Mus musculus) was 46 nM. Also, the IC50 on human SMG1 enzyme stood at 1.1 nM.

For the compound `O=C1Nc2ccnc(-c3ccccc3Cl)c2CN1c1nc2cnc(Cl)cc2[nH]1` [Example 102, 3-(6-chloro-1H-imidazo[4,5-c]pyridin-2-yl)-5-(2-chlorophenyl)-3,4-dihydropyrido[4,3-d]pyrimidin-2(1H)-one], the EC50 in test [1] (Mus musculus) was 76 nM. Further, the IC50 at human SMG1 enzyme was 2.8 nM.

For `CC(C)(O)c1cccc(-c2nccc3[nH]c(=O)c(-c4nc5cnc(Cl)cc5[nH]4)cc23)c1` [Example 46, 3-(6-chloro-1H-imidazo[4,5-c]pyridin-2-yl)-5-[3-(2-hydroxypropan-2-yl)phenyl]-1,6-naphthyridin-2(1H)-one], the EC50 in test [1] (Mus musculus) was 115 nM. Further, on human SMG1 enzyme, the IC50 came to 1.8 nM.

As to `Cc1nn2c(C)c1-c1nccc3[nH]c(=O)c(cc13)-c1nc3c(nc(Cl)cc3[nH]1)NCC(C)(C)CNC(=O)C2` [Example 115, 7-chloro-12,12,19,30-tetramethyl-3,8,10,14,17,18,22,26,31-nonaazahexacyclo[19.6.2.1^2,5.1^17,20.0^4,9.0^25,29]hentriacont-1(28),2,4,6,8,18,20(30),21(29),22,24-decaen-15,27-dione], in test [1] (Mus musculus), the EC50 came out at 58 nM. Also, at human SMG1 enzyme, the IC50 came to 0.64 nM.

As for `Cc1c(-c2nccc3[nH]c(=O)c(-c4nc5cnc(Cl)cc5[nH]4)cc23)c(C(F)F)nn1C(C)C` [Example 94, 3-(6-chloro-1H-imidazo[4,5-c]pyridin-2-yl)-5-[3-(difluoromethyl)-5-methyl-1-(propan-2-yl)-1H-pyrazol-4-yl]-1,6-naphthyridin-2(1H)-one], in test [1] (Mus musculus), the EC50 turned out to be 60 nM. Further, at human SMG1 enzyme, the IC50 worked out at 1.5 nM.

For the compound `CN(c1nc(Cl)cc2[nH]c(-c3cc4cnccc4[nH]c3=O)nc12)[C@H]1CC[C@H](O)CC1` [Example 5, 3-{6-chloro-4-[(trans-4-hydroxycyclohexyl)(methyl)amino]-1H-imidazo[4,5-c]pyridin-2-yl}-1,6-naphthyridin-2(1H)-one], the EC50 in test [1] (Mus musculus) was determined as 30 nM. Moreover, at human SMG1 enzyme, the IC50 stood at 1.4 nM.

On to `CCc1nc(Cl)cc2[nH]c(-c3cc4c(-c5c(C)cnn5C)nccc4[nH]c3=O)nc12` [Example 87, 3-(6-chloro-4-ethyl-1H-imidazo[4,5-c]pyridin-2-yl)-5-(1,4-dimethyl-1H-pyrazol-5-yl)-1,6-naphthyridin-2(1H)-one], for which, in test [1] (Mus musculus), the EC50 was found to be 59 nM. On human SMG1 enzyme, the IC50 stood at 1.3 nM.

With `COc1nc(C)ncc1-c1nccc2[nH]c(=O)c(-c3nc4c(NCC(F)F)nc(Cl)cc4[nH]3)cc12` [Example 69, 3-(6-chloro-4-[(2,2-difluoroethyl)amino]-1H-imidazo[4,5-c]pyridin-2-yl)-5-(4-methoxy-2-methylpyrimidin-5-yl)-1,6-naphthyridin-2(1H)-one], the EC50 in test [1] (Mus musculus) amounted to 6.8 nM. For the same compound, at human SMG1 enzyme, the IC50 was 0.91 nM.

For `Cc1c2cccc1-c1nccc3[nH]c(=O)c(cc13)-c1nc3c(nc(Cl)cc3[nH]1)N(C)CCCN(C)C2=O` [Example 108, 7-chloro-10,14,30-trimethyl-3,8,10,14,22,26,31-heptaazahexacyclo[19.6.2.1^2,5.1^16,20.0^4,9.0^25,29]hentriacont-1(28),2,4,6,8,16(30),17,19,21(29),22,24-undecaen-15,27-dione], in test [1] (Mus musculus), the EC50 was 2 nM. Further, the IC50 on human SMG1 enzyme turned out to be 1 nM.

On to `CCc1nccc2[nH]c(=O)c(-c3nc4c(N5CC[C@H](O)[C@H]5C)nc(Cl)cc4[nH]3)cc12` [Example 122, 3-{6-chloro-4-[(2R,3S)-3-hydroxy-2-methylpyrrolidin-1-yl]-1H-imidazo[4,5-c]pyridin-2-yl}-5-ethyl-1,6-naphthyridin-2(1H)-one methanesulfonate], for which the EC50 in test [1] (Mus musculus) stood at 28 nM. At human SMG1 enzyme, the IC50 amounted to 2.2 nM.
